The NIST ThermoML archive (doi:10.1016/j.jct.2018.08.014)

Tests used:
[1] = molar heat capacity at constant pressure; conditions: 101.33 kPa, Liquid, DSC
[2] = Crystal; DSC

CCCCCCCCCCC(=O)OC [methyl undecanoate]
[1]
Conditions | molar heat capacity at constant pressure [J/K/mol]
273 K | 381.61
275 K | 381.61
277 K | 384.11
279 K | 380.78
281 K | 381.61
283 K | 382.44
285 K | 382.44
287 K | 385.77
289 K | 384.11
291 K | 384.11
293 K | 384.94
295 K | 384.94
297 K | 385.77
298 K | 389.1
299 K | 385.77
301 K | 386.6
303 K | 389.93

Conditions | Triple point temperature [K]
[2] | 262

CCCCCCCC(=O)OCCCC [butyl octanoate]
[1]
Conditions | molar heat capacity at constant pressure [J/K/mol]
241 K | 387.43
243 K | 387.43
245 K | 386.6
247 K | 386.6
249 K | 386.6
251 K | 386.6
253 K | 386.6
255 K | 387.43
257 K | 388.26
259 K | 387.43
261 K | 387.43
263 K | 386.6
265 K | 386.6
267 K | 386.6
269 K | 386.6
271 K | 386.6
273 K | 386.6
275 K | 386.6
277 K | 386.6
279 K | 388.26
281 K | 389.1
283 K | 390.76
285 K | 391.59
287 K | 391.59
289 K | 393.25
291 K | 394.08
293 K | 394.92
295 K | 395.75
297 K | 396.58
298 K | 397.41
299 K | 397.41
301 K | 398.24
303 K | 399.07

Conditions | Triple point temperature [K]
[2] | 230

CCCCCCOC(=O)CCCCC [hexanoic acid, hexyl ester]
[1]
Conditions | molar heat capacity at constant pressure [J/K/mol]
227 K | 390.76
229 K | 387.43
231 K | 385.77
233 K | 384.94
235 K | 384.11
237 K | 384.11
239 K | 383.28
241 K | 383.28
243 K | 383.28
245 K | 383.28
247 K | 383.28
249 K | 383.28
251 K | 383.28
253 K | 383.28
255 K | 384.11
257 K | 384.94
259 K | 384.94
261 K | 384.94
263 K | 385.77
265 K | 385.77
267 K | 385.77
269 K | 385.77
271 K | 385.77
273 K | 384.94
275 K | 384.94
277 K | 385.77
279 K | 386.6
281 K | 387.43
283 K | 389.1
285 K | 389.93
287 K | 390.76
289 K | 392.42
291 K | 392.42
293 K | 393.25
295 K | 394.08
297 K | 394.92
298 K | 394.92
299 K | 394.92
301 K | 396.58
303 K | 397.41

Conditions | Triple point temperature [K]
[2] | 217

CCCCCCCCOC(=O)CCC [octyl butanoate]
[1]
Conditions | molar heat capacity at constant pressure [J/K/mol]
227 K | 380.78
229 K | 379.12
231 K | 379.12
233 K | 378.29
235 K | 376.62
237 K | 376.62
239 K | 375.79
241 K | 374.96
243 K | 374.13
245 K | 373.3
247 K | 373.3
249 K | 372.47
251 K | 372.47
253 K | 372.47
255 K | 372.47
257 K | 373.3
259 K | 372.47
261 K | 373.3
263 K | 373.3
265 K | 373.3
267 K | 374.13
269 K | 374.13
271 K | 374.13
273 K | 373.3
275 K | 373.3
277 K | 373.3
279 K | 374.13
281 K | 375.79
283 K | 376.62
285 K | 377.46
287 K | 378.29
289 K | 379.12
291 K | 379.95
293 K | 380.78
295 K | 381.61
297 K | 383.28
298 K | 383.28
299 K | 384.11
301 K | 385.77
303 K | 385.77

Conditions | Triple point temperature [K]
[2] | 218

CCCCCCCCCC(=O)OCC [ethyl decanoate]
[1]
Conditions | molar heat capacity at constant pressure [J/K/mol]
263 K | 375.79
265 K | 375.79
267 K | 375.79
269 K | 375.79
271 K | 375.79
273 K | 374.96
275 K | 374.13
277 K | 374.96
279 K | 376.62
281 K | 378.29
283 K | 379.12
285 K | 379.95
287 K | 379.95
289 K | 380.78
291 K | 380.78
293 K | 381.61
295 K | 382.44
297 K | 383.28
298 K | 383.28
299 K | 384.11
301 K | 385.77
303 K | 385.77

Conditions | Triple point temperature [K]
[2] | 252
